Results on 1 substance are retold here after patent publication US20140147848A1 (UNIVERSITY OF TSUKUBA, priority 2012, published 2014).

For one data set, the system named is Calreticulin (CALR). The data set is described as follows: Real-time PCR, CALR expression in Caco-2 cells. To be noted: LAS 60 ppm. For orientation: In qPCR the cycle at which signal appears reflects the starting amount.
For data set [1], the system named is Caco-2 cells. Particulars: LAS 60 ppm. As for the experimental part:
(§1) Note that in all figures asterisks represent the significance of the difference compared to the control, e.g., * for p value<0.05 and ** for p value<0.01.
The determination of intracellular ROS was performed using the OxiSelect™ Intracellular ROS Assay Kit, from CELL BIOLABS, INC., according to the manufacturer's protocol. Briefly, Caco-2 cells were cultured in a 96-well plate for 24 h, and then pre-incubated for 60 min with DCFH-DA. […] After a different incubation times of, for example, 1 h, 3 h, 6 h, and 12 h, the fluorescence was read using a plate reader at 480 nm/530 nm excitation/emission wavelengths. The ROS content was determined by comparison with the predetermined DCF standard curve.

The subject of data set [2] is Caco-2 cells. As for the experimental part:
Cells were then harvested by centrifugation, where the supernatant was discarded and the pellet was resuspended in 1 ml of PBS. Genomic DNA was then purified using commercial DNA purification kit from QIAGEN. 1 μg of DNA sample was added to 2 μl of loading buffer (Wako) and then loaded onto a 2% agarose gel. The electrophoresis was carried out at a constant voltage of 100 V for 20 min and the DNA was finally observed under ultraviolet illumination after staining with ethidium bromide.

Data set [3] relates to Caco-2 cells. This is another data set of the same source.
Description: Caspase assay was performed using Immunochemistry Technologies, LLC's Apoptosis detection kit, according to the manufacturer's protocol. […] After treatment, approximately 290-300 μl of each cell suspension was transferred to sterile tubes (e.g., cell density should be around 1×10^7 cells/ml). 10 μl of 30×FLICA solution was added directly to the 290-300 μl cell suspensions, and then incubate cells for 1 hour at 37° C. under 5% CO2, protecting the tubes from light. 2 ml of 1× wash buffer was added to each tube. The tubes were then mix and centrifuge cells at <400×g for 5 minutes at room temperature (RT). The supernatant was carefully remove and discard. The cell pellet was resuspended in 1 ml 1× wash buffer, and the cells were centrifuged again at <400×g for 5 minutes at RT. The supernatant was carefully removed and discarded. The cells were resuspended in 400 μl PBS, about 100 μl of the cell suspensions was placed into each of 2 wells of a black microplate. Finally the fluorescence intensity of sulforhodamine (excitation 550 nm, emission 595 nm) was measured and used a fluorescence plate reader.
Data set [4] has as its system Tropomyosin alpha-3 chain (TPM3). The data set is described as follows: Real-time PCR, TPM3 expression in Caco-2 cells. Particulars: LAS 60 ppm.
Description: (§2) Caco-2 cells treatment and RNA extraction: Caco-2 cells were seeded at 2×10^5 cells/ml density in Petri dishes. […] Total RNA was then purified using the ISOGEN kit (Nippon GeneCo Ltd., Japan) following the manufacturer's instructions.
(§3) cDNA synthesis: Total RNA was quantified using the Thermo scientific Nanodrop 2000 (USA), and reverse transcription reactions were performed using the Superscript III reverse transcriptase kit (Invitrogen, Carlsbad, Calif.) using 1 μg of total RNA. Briefly, RNA was denatured by incubation at 65° C. for 5 min, with 1 μL oligo (dT) primers, and chilled at 4° C. SuperScript III reverse transcriptase was then added and the reaction mix was incubated at 42° C. for 60 min, and then for 10 min at 70° C.
Real-time PCR: The expression of TPM3, THIO, CALR and HSP7C, respectively, in treated Caco-2 cells was determined by real-time PCR using glyceraldehyde 3-phosphate dehydrogenase (GAPDH) as an internal positive control. […] TaqMan real-time PCR amplification reactions were performed in a 20 μl reaction mixtures containing: 10 μl of TaqMan Universal PCR Master Mix UNG (2×), 9 μl of template cDNA (100 ng μl^−1) and 1 μl of the corresponding primer/probe mix, using an AB 7500 fast real-time system (Applied Biosystems). For the amplification, the following cycling conditions were applied: 2 min at 50° C., 10 min at 95° C., and 40 cycles of 15 s at 95° C./1 min at 60° C.
In another data set the test system is Thioredoxin (THIO). Particulars: LAS 60 ppm.
Description: as §1

The subject of data set [5] is Caco-2 cells. The source holds these as a separate data set.
The test system of data set [6] is Caco-2 cells. To be noted: 5 ppm and 60 ppm LAS, 24 hours, vs control.
Description: Total protein was extracted from all three populations 24 hours after treatment, as described in detail below. […] The labeled spots (i.e., the differentially expressed proteins) were chosen based on the results of software analysis designed to assess the respective fold changes of protein levels in the each of the respective spots.
Caco-2 cells were seeded at 2×10^5 cells/ml density in Petri dishes. […] The cells were rinsed three times with ice-cold PBS, scraped gently, and collected in PBS. […] After desalting the protein was extracted using Amicon Ultra centrifugal filters (Ultracel-10K membrane) from Millipore, and the final protein amount was determined using the 2-D Quant kit (GE Healthcare).
The first dimension electrophoresis was carried out on an Ettan IPGphor II (GE Healthcare) apparatus. […] The destained gels were then scanned at 300 dpi resolution, and the images were analyzed with Image Master™ 2D software (ver. 4.9: GE Healthcare). For statistical quantification, three experiments were performed for each experiment. […] Spots were expressed as percentages (% vol) of relative volumes by integrating the value of each pixel in the spot area as described previously in our study (see, e.g., Han et al. 2010). […]
Data set [7] relates to Caco-2 cells. As for the experimental part:
Specifically, Caco-2 cells were treated with concentrations of 0, 1 ppm, 5 ppm, 50 ppm, 60 ppm, and 70 ppm and analyzed by an MTT assay at 24 h, 48 h, and 72 h post-treatment.
The human colon adenocarcinoma cell line Caco-2 was kindly provided by Dr. Makoto Shimizu of the University of Tokyo, Japan. Caco-2 cells were cultured in Dulbecco's modified Eagle's medium (DMEM; Sigma) supplemented with 10% fetal calf serum (FCS), 1% nonessential amino acids (NEAA) and 1% Penicillin/Streptomycin (5 mg/ml each), and incubated in a 95% air and 5% CO2 atmosphere at 37° C. The cells were sub-cultured at a split ratio of 1:3 every 2 days.
Cell viability was assessed using a conventional MTT reduction assay. […] At the respective time points, 10 μl of MTT stock solution (5 mg/ml) was added to the culture medium and incubated for 6 h at 37° C. The formazan was extracted with 100 μl 10% SDS (W/V), and the absorbance was measured with a microliter plate reader at 570 nm wavelength.
This is another data set of the same source.

For data set [8], the system named is Heat shock cognate 71 kDa protein (HSP7C). To be noted: LAS 60 ppm, 12 hours after exposure.
Description: as §2, §3
Real-time PCR: The expression of TPM3, THIO, CALR and HSP7C, respectively, in treated Caco-2 cells was determined by real-time PCR using glyceraldehyde 3-phosphate dehydrogenase (GAPDH) as an internal positive control. […] TaqMan real-time PCR amplification reactions were performed in a 20 μl reaction mixtures containing: 10 μl of TaqMan Universal PCR Master Mix UNG (2×), 9 μl of template cDNA (100 ng μl^−1) and 1 μl of the corresponding primer/probe mix, using an AB 7500 fast real-time system (Applied Biosystems). […]
Another data set deals with Caco-2 monolayer. The method, then:
TEER measurements were obtained by growing the cells at a density of 2·10^5 cells/cm^2 in 6.5-mm diameter collagen coated Transwell (0.4 μm PTFE membrane) on 24-well plates. The medium was changed every 2 days, and the cells were cultured for 12 days to establish monolayer integrity. TEER measurements were performed according to the method of Hashimoto et al. (1997). After a 12-day culture period, the cell monolayer was rinsed with PBS.

Like-named read-outs stand apart in the source and are kept apart here.

Description for Calreticulin (CALR): as §2, §3
Real-time PCR: The expression of TPM3, THIO, CALR and HSP7C, respectively, in treated Caco-2 cells was determined by real-time PCR using glyceraldehyde 3-phosphate dehydrogenase (GAPDH) as an internal positive control. Oligos for TPM3 (Hs01900726_g1), THIO (Hs01555212_g1), CALR (Hs00189032_m1), HSP7C (Hs03045200_g1) and GAPDH (Hs02758991_g1) were inventoried gene expression assays (see Table 5). TaqMan real-time PCR amplification reactions were performed in a 20 μl reaction mixtures containing: 10 μl of TaqMan Universal PCR Master Mix UNG (2×), 9 μl of template cDNA (100 ng μl^−1) and 1 μl of the corresponding primer/probe mix, using an AB 7500 fast real-time system (Applied Biosystems). For the amplification, the following cycling conditions were applied: 2 min at 50° C., 10 min at 95° C., and 40 cycles of 15 s at 95° C./1 min at 60° C.

As to sodium dodecylbenzenesulfonate [LAS], the “CALR expression relative to control” value in the data set on Calreticulin (CALR) (3 hours post-treatment) is listed as “about 1.6 fold”; in the data set on Calreticulin (CALR) (12 hours post-treatment), “decreased to baseline levels”; in the data set with Calreticulin (CALR) (24 hours after exposure), “once again overexpressed”. For the same substance, the ROS production result was “returned to baseline levels (or lower)” in the data set on Caco-2 cells [1] (12 hours post-treatment) and “significant ROS production” in the data set on Caco-2 cells [1] (within the first 6 hours after treatment). In addition, the DNA fragmentation entry in the data set with Caco-2 cells [2] is “no DNA fragmentation was observed”. The “cell death pathway (caspase assay)” value in the data set on Caco-2 cells [3] is on record as “non-apoptotic pathway”. Further, the “TPM3 overexpression relative to the control” value in data set [4] (3 hours) is 1.2 fold; in [4] (6 hours post-exposure) it was “slightly below that of the control”; in data set [4] (after 6 hours (time not given)), roughly 1.05 fold. The “THIO overexpression relative to the control” value in the data set with Thioredoxin (THIO) (3 hours) is on record as 1.4 fold; with Thioredoxin (THIO) (6 hours), 1.4 fold; in the data set with Thioredoxin (THIO) (12 hours) it was “about 1.3 fold”; in the data set on Thioredoxin (THIO) (24 hours), “about 1.1 fold”. Besides, the intracellular calcium concentration entry in the data set with Caco-2 cells [5] (3 and 6 hours post-treatment) was “decrease of the intracellular calcium concentration”; in the data set on Caco-2 cells [5] (12 hours, continuing until 24 hours post-treatment), “excessive increase of the intracellular calcium concentration”. For the same substance, the “change in protein expression, spots 1, 2, 4, 5, 7, 8, 9, 10, and 12” value in the data set on Caco-2 cells [6] is listed as “up-regulation”. Besides, the “change in protein expression, spots 3, 6, 11, and 13” value with Caco-2 cells [6] is “down-regulation”. The “cytotoxic effect on Caco-2 cells (MTT)” value in the data set on Caco-2 cells [7] (0-70 ppm LAS, 24 h, 48 h, 72 h post-treatment) is “strong cytotoxic effect”; in the data set on Caco-2 cells [7] (LAS 5 ppm), “no obvious cytotoxic effect”. Moreover, the “HSP7C expression relative to control” value in data set [8] is “significantly overexpressed”. The “relative electrical resistance (TEER)” value in the data set with Caco-2 monolayer (5, 10, 30, and 60 ppm LAS over time) is given as “decreased with increasing concentration of LAS”. Moreover, the “time to decrease in barrier function efficiency” value in the data set with Caco-2 monolayer (higher concentrations of LAS) is listed as no more than 30 min.
